Data on 13 compounds can be found in ChEMBL document CHEMBL4229491, “Design, synthesis and evaluation of novel N-phenylbutanamide derivatives as KCNQ openers for the treatment of epilepsy” (Bioorg Med Chem Lett, 2018).

The target of series [1] is T1, Potassium voltage-gated channel subfamily KQT member 2 (Homo sapiens, UniProt O43526). As to the kind of experiment: Channel opening activity at KCNQ2 (unknown origin) expressed in CHO cells after 10 mins by atomic absorption spectrophotometry-based Rb+ flow assay. The class given is cell-based.
T1 sequence (O43526 whole entry): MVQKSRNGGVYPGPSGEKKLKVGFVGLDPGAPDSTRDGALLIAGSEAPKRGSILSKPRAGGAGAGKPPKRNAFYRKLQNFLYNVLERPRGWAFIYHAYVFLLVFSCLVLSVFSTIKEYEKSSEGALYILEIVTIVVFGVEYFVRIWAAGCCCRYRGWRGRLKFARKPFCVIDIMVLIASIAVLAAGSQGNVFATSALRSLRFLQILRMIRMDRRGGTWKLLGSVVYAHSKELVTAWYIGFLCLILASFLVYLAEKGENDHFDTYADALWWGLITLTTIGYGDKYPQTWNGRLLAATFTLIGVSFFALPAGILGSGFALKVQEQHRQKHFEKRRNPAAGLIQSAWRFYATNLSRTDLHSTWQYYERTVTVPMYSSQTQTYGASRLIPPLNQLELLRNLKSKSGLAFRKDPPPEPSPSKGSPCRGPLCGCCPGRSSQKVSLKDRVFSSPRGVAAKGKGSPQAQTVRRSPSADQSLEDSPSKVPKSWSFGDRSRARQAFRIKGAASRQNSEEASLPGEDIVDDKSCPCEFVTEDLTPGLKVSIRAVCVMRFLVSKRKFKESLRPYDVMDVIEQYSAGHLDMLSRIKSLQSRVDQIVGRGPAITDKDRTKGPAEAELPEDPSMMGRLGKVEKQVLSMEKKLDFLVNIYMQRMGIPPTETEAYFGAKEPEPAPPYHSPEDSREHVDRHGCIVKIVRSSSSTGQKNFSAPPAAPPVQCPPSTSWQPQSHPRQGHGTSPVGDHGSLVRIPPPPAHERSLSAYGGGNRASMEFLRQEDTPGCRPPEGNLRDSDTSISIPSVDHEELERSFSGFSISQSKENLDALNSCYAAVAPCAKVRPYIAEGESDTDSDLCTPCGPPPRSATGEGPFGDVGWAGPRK
Series [2] addresses T1, Potassium voltage-gated channel subfamily KQT member 2. As to the kind of experiment: Channel opening activity at KCNQ2 (unknown origin) expressed in CHO cells at 10 uM incubated for 20 mins in dark measured every 2 secs for 10 secs by fluorescence-based thallium influx assay relative to control. The class given is cell-based.
For series [3] the target is unchanged. As to the kind of experiment: Channel opening activity at KCNQ2 (unknown origin) expressed in CHO cells assessed as change in half activation potential at 10 uM by electrophysiological patch-clamp test. The class given is cell-based.
For series [4] the target is unchanged. As to the kind of experiment: Channel opening activity at KCNQ2 (unknown origin) expressed in CHO cells assessed as conductivity (I/I0 ratio) at 10 uM by electrophysiological patch-clamp test. The class given is cell-based.
Series [5] concerns Rattus norvegicus. As to the kind of experiment: Neurotoxicity in Sprague-Dawley rat at 25 mg/kg, ip measured after 30 mins by rotating-rod test. The class given is toxicity, organism-based. As to conditions: in vivo, 0.5 h.
The subject of series [6] is Mus musculus. As to the kind of experiment: Anticonvulsant activity in maximal electroshock induced Kunming mouse assessed as epilepsy incidence at 25 mg/kg, ip measured after 30 mins. In kind it is functional.
Series [7] in a line: Drug uptake in Kunming mouse brain at 1.5 mg/kg, iv measured after 2 hrs by LC/MS/MS analysis. As to conditions: read-out: Drug uptake. The class given is ADME, organism-based.
Series [8] relates to Mus musculus. As to the kind of experiment: Anticonvulsant activity in maximal electroshock induced Kunming mouse assessed as epilepsy incidence at 3 mg/kg, ip measured after 30 mins. In kind it is functional.
A short description of series [9]: Ratio of drug uptake in Kunming mouse brain to plasma at 15 mg/kg, ig measured after 2 hrs by LC/MS/MS analysis. In kind it is ADME, organism-based. As to conditions: po, read-out: BPR.
For series [10], the system named is Mus musculus. As to the kind of experiment: Anticonvulsant activity in maximal electroshock induced Kunming mouse assessed as epilepsy incidence at 1 mg/kg, ip measured after 30 mins. The class given is functional.
Series [11] can be described thus: AUClast in Sprague-Dawley rat at 1 mg/kg, iv by LC/MS/MS analysis. The class given is ADME, organism-based. Also noted: dose 1 mg/kg, route intravenous, time 0 - last. As to conditions: in vivo.
The nature of series [12]: Cmax in Sprague-Dawley rat at 1 mg/kg, iv by LC/MS/MS analysis. Also noted: dose 1 mg/kg, route intravenous. The class given is ADME, organism-based. As to conditions: in vivo.
Series [13] has as its system Mus musculus. As to the kind of experiment: Anticonvulsant activity in ip dosed maximal electroshock induced Kunming mouse assessed as suppression of hind legs rigidity measured after 30 mins. The class given is functional, organism-based.
A short description of series [14]: Drug uptake in Kunming mouse plasma at 1.5 mg/kg, iv measured after 30 mins by LC/MS/MS analysis. The class given is ADME, organism-based.
The nature of series [15]: Drug uptake in Kunming mouse plasma at 15 mg/kg, ig measured after 5 mins by LC/MS/MS analysis. In kind it is ADME, organism-based. As to conditions: po.
Series [16] is described as follows: Ratio of drug uptake in Kunming mouse brain to plasma at 15 mg/kg, ig measured after 30 mins by LC/MS/MS analysis. In kind it is ADME, organism-based. As to conditions: po, read-out: BPR.
Series [17] in a line: Ratio of drug uptake in Kunming mouse brain to plasma at 1.5 mg/kg, iv measured after 2 hrs by LC/MS/MS analysis. The class given is ADME, organism-based. As to conditions: read-out: BPR.
A short description of series [18]: Ratio of drug uptake in Kunming mouse brain to plasma at 1.5 mg/kg, iv measured after 30 mins by LC/MS/MS analysis. The class given is ADME, organism-based. As to conditions: read-out: BPR.
For series [19], the system named is Mus musculus. As to the kind of experiment: Anticonvulsant activity in maximal electroshock induced Kunming mouse assessed as epilepsy incidence at 0.3 mg/kg, ip measured after 30 mins. The class given is functional.
Series [20] is described as follows: Drug uptake in Kunming mouse brain at 15 mg/kg, ig measured after 2 hrs by LC/MS/MS analysis. As to conditions: po, read-out: Drug uptake. In kind it is ADME, organism-based.
A short description of series [21]: Drug uptake in Kunming mouse plasma at 1.5 mg/kg, iv measured after 2 hrs by LC/MS/MS analysis. The class given is ADME, organism-based.
Series [22] is described as follows: Ratio of drug uptake in Kunming mouse brain to plasma at 15 mg/kg, ig measured after 5 mins by LC/MS/MS analysis. In kind it is ADME, organism-based. As to conditions: po, read-out: BPR.
The nature of series [23]: Ratio of drug uptake in Kunming mouse brain to plasma at 1.5 mg/kg, iv measured after 5 mins by LC/MS/MS analysis. The class given is ADME, organism-based. As to conditions: read-out: BPR.
Series [24] in a line: Drug uptake in Kunming mouse plasma at 15 mg/kg, ig measured after 30 mins by LC/MS/MS analysis. As to conditions: po. In kind it is ADME, organism-based.
Series [25] can be described thus: MRTlast in Sprague-Dawley rat at 1 mg/kg, iv by LC/MS/MS analysis. The class given is ADME, organism-based. As to conditions: in vivo.
Series [26] addresses T1, Potassium voltage-gated channel subfamily KQT member 2. As to the kind of experiment: Potency index, ratio of retigabine EC50 to compound EC50 for channel opening activity at KCNQ2 (unknown origin) expressed in CHO cells by atomic absorption spectrophotometry-based Rb+ flow assay. In kind it is cell-based.
Series [27] can be described thus: Drug uptake in Kunming mouse brain at 1.5 mg/kg, iv measured after 30 mins by LC/MS/MS analysis. As to conditions: read-out: Drug uptake. In kind it is ADME, organism-based.
Series [28] in a line: Drug uptake in Kunming mouse brain at 1.5 mg/kg, iv measured after 5 mins by LC/MS/MS analysis. In kind it is ADME, organism-based. As to conditions: read-out: Drug uptake.
Series [29] is described as follows: Tmax in Sprague-Dawley rat at 1 mg/kg, iv by LC/MS/MS analysis. The class given is ADME, organism-based. As to conditions: in vivo.
A short description of series [30]: Apparent volume of distribution in Sprague-Dawley rat at 1 mg/kg, iv by LC/MS/MS analysis. In kind it is ADME, organism-based. As to conditions: in vivo, read-out: Vz.
Series [31] in a line: Drug uptake in Kunming mouse brain at 15 mg/kg, ig measured after 5 mins by LC/MS/MS analysis. In kind it is ADME, organism-based. As to conditions: po, read-out: Drug uptake.
Series [32] deals with Rattus norvegicus. As to the kind of experiment: Neurotoxicity in Sprague-Dawley rat at 1 mg/kg, ip measured after 30 mins by rotating-rod test. The class given is toxicity, organism-based. As to conditions: in vivo, 0.5 h.
Series [33] has as its system Rattus norvegicus. As to the kind of experiment: Neurotoxicity in Sprague-Dawley rat at 5 mg/kg, ip measured after 30 mins by rotating-rod test. In kind it is toxicity, organism-based. As to conditions: in vivo, 0.5 h.
A short description of series [34]: Half life in Sprague-Dawley rat at 1 mg/kg, iv by LC/MS/MS analysis. The class given is ADME, organism-based. As to conditions: in vivo.
Series [35] can be described thus: Drug uptake in Kunming mouse plasma at 15 mg/kg, ig measured after 2 hrs by LC/MS/MS analysis. In kind it is ADME, organism-based. As to conditions: po.
Series [36] concerns Mus musculus. As to the kind of experiment: Anticonvulsant activity in maximal electroshock induced Kunming mouse assessed as epilepsy incidence at 5 mg/kg, ip measured after 30 mins. The class given is functional.
Series [37] in a line: Drug uptake in Kunming mouse plasma at 1.5 mg/kg, iv measured after 5 mins by LC/MS/MS analysis. The class given is ADME, organism-based.
Series [38] relates to Rattus norvegicus. As to the kind of experiment: Neurotoxicity in Sprague-Dawley rat at 0.3 mg/kg, ip measured after 30 mins by rotating-rod test. As to conditions: in vivo, 0.5 h. In kind it is toxicity, organism-based.
A short description of series [39]: Drug uptake in Kunming mouse brain at 15 mg/kg, ig measured after 30 mins by LC/MS/MS analysis. In kind it is ADME, organism-based. As to conditions: po, read-out: Drug uptake.
Series [40] concerns Rattus norvegicus. As to the kind of experiment: Neurotoxicity in Sprague-Dawley rat at 3 mg/kg, ip measured after 30 mins by rotating-rod test. As to conditions: in vivo, 0.5 h. The class given is toxicity, organism-based.
Series [41] in a line: Clearance in Sprague-Dawley rat at 1 mg/kg, iv by LC/MS/MS analysis. In kind it is ADME, organism-based. As to conditions: in vivo.

As for `Cc1cc(N2CCCCc3cc(Br)ccc32)cc(C)c1NC(=O)CC(C)(C)C`, the EC50 in series [1] was 1080 nM.
In series [1], `Cc1csc2c1CN(c1cc(C)c(NC(=O)CC(C)(C)C)c(C)c1)CC2` had an EC50 of 300 nM.
Compound `Cc1cc(N2CCn3cccc3C2)cc(C)c1NC(=O)CC(C)(C)C` displayed an EC50 in series [1] of 34 nM. The compound also came in with an Activity in series [2] of 4.87%. Moreover, in [3], the V1/2 was 46.1 mV. For the same compound, in [4], the Ratio came out at 1.65.
Consider `CCOC(=O)Nc1ccc(NCc2ccc(F)cc2)cc1N` [EZOGABINE], for which the Activity turned out to be 0% with Rattus norvegicus [5] and 15% with Mus musculus [6]. Moreover, the V1/2 in series [3] stood at 40 mV. The Ratio in [4] worked out at 2.12.
Turning to `Cc1cc2c(s1)CN(c1cc(C)c(NC(=O)CC(C)(C)C)c(C)c1)CC2`, in [1], the EC50 stood at 30 nM.
For `Cc1cc(N2CCc3sc(C#N)cc3C2)cc(C)c1NC(=O)CC(C)(C)C`, in series [1], the EC50 was 290 nM.
Still for that read-out and setting: next, `Cc1cc(N2CCc3cc(F)sc3C2)cc(C)c1NC(=O)CC(C)(C)C`: 2930 nM; `Cc1cc(N2CCCCc3cc(F)ccc32)cc(C)c1NC(=O)CC(C)(C)C`: 250 nM.
`Cc1cc(N2CCc3ccsc3C2)cc(C)c1NC(=O)CC(C)(C)C` registered an EC50 in series [1] of 20 nM. In series [2], this compound came in with an Activity of 64.8%. Moreover, in series [3], the V1/2 was found to be 53.3 mV. Moreover, the Ratio in [4] amounted to 0.67.
With `Cc1cc(N2CCCCc3cc(Cl)ccc32)cc(C)c1NC(=O)CC(C)(C)C`, the EC50 in series [1] was found to be 140 nM.
In [1], `Cc1cc(N2CCc3sc(C(F)(F)F)cc3C2)cc(C)c1NC(=O)CC(C)(C)C` returned an EC50 of 120 nM.
On to `Cc1cc(N2CCc3sccc3C2)cc(C)c1NC(=O)CC(C)(C)C`, for which the EC50 came to 20 nM in series [1] and 1.83 mg/kg in the series with Mus musculus [13]. Moreover, the concentration at 2 h in series [7] was determined as 1.27 ng/g; in series [20], 4.96 ng/g; in series [21] it was 7.85 ng/mL; in series [35] it was 52.9 ng/mL. Also, the Activity in the series on Mus musculus [8] is 20%; with Mus musculus [10], 90%; in series [2], 84.2%; with Mus musculus [19], 70%; in the series on Rattus norvegicus [32], 0%; in the series on Rattus norvegicus [33] it was 0%. Besides, the Activity in the series on Mus musculus [36] worked out at 20%; with Rattus norvegicus [38], 0%; with Rattus norvegicus [40], 0%. The Kp at 2 h is 0.09 in series [9] and 0.16 in series [17]. The compound also yielded an area under the curve AUC(0-t) in series [11] of 687 ng·h/mL. Moreover, the highest level in series [12] (Cmax) was 1060 ng/mL. Besides, the concentration at 0.5 h in series [14] stood at 137 ng/mL; in series [24], 243 ng/mL; in series [27] it was 19 ng/g; in series [39] it was 30 ng/g. The concentration at 5 min in series [15] is 201 ng/mL; in series [28] it was 140 ng/g; in [31], 25 ng/g; in series [37], 771 ng/mL. Besides, the results for the Kp at 0.5 h in series [16] and in series [18] were 0.12 and 0.14, respectively. Moreover, the values for the Kp at 5 min in series [22] and in [23] were 0.12 and 0.18, respectively. In series [25], this compound registered an MRT last of 2.17 h. In addition, the Ratio EC50 in series [26] was 17. Also, the Tmax in [29] worked out at 1.8 min. Moreover, in series [30], the Vd worked out at 11.2 L/kg. Further, the V1/2 in series [3] was found to be 66.2 mV. Moreover, in series [4], the Ratio was 1.63. Also, in [34], the half-life was 5.49 h. Also, the clearance in [41] is 23.6 mL/min/kg.
In series [1], `Cc1ccc2c(c1)CCCCN2c1cc(C)c(NC(=O)CC(C)(C)C)c(C)c1` returned an EC50 of 40 nM.
